In publication PMC10056899, “Neuroprotective and Antiherpetic Properties of Polyphenolic Compounds from Maackia amurensis Heartwood” (Molecules, 2023):
“And” between values parts separate entries of the source, which are not always exact repeats. Equal values may be shown once. Read-outs that look alike come from different tables or passages of the source.

What was measured:
[1] = system: PQ-treated Neuro-2a cells; experiment: Intracellular ROS level in PQ-treated cells (H2DCF-DA); format: cell-based, murine; details: 10 μM, PQ 1 mM
Description: After 24 h of adhesion, Neuro-2a cells (1 × 10^4 cells/well) were incubated with stilbenes (0.01–10 µM) for 1 h. After that, we added PQ (1 mM) to each well and incubated the cells for 3 h. To study ROS formation, we added 20 µL of 2,7-dichlorodihydrofluorescein diacetate solution ([…], H2DCF-DA, Molecular Probes, Eugene, OR, USA) to each well, so that the concentration was 10 µM, and kept the microplate in a CO2–incubator for additional 30 min at 37 °C.

[2] = Cytotoxicity against Vero cells (MTT assay); format: cell-based; details: African green monkey (Chlorocebus sp.)
Description: (§1) The HSV-1 strain L2 and Vero cell culture (kidney epithelial cells of the African green monkey Chlorocebus sp.) were obtained from the N.F. Gamaleya Federal Research Centre for Epidemiology and Microbiology (Moscow, Russia). HSV-1 was grown in Vero cells, using Dulbecco′s Modified Eagle′s Medium (DMEM, Biolot, St. Petersburg, Russia) supplemented with 10% fetal bovine serum (FBS, Biolot, St. Petersburg, Russia) and 100 U/mL of gentamycin (Dalkhimpharm, Khabarovsk, Russia), at 37 °C in a CO2 incubator. In the maintenance medium, the FBS concentration was decreased to 1%.
(§2) The tested compounds were dissolved in DMSO (Sigma, St. Louis, MO, USA) at a concentration 10 mg/mL and stored at −20 °C. For cytotoxicity and anti-HSV-1 activity determination, the stock solutions were diluted with DMEM so that the final concentration of DMSO was 0.5%.
The cytotoxicity evaluation of the studied compounds was performed using the MTT assay, as described previously. In brief, confluent Vero cells in 96-well microplates (1 × 10^4 cells/well) were incubated with tested compounds at various concentrations (1–500 μg/mL) at 37 °C for 48 h (5% CO2). Untreated cells were used as controls. Then, MTT solution (methylthiazolyltetrazolium bromide, Sigma, St. Louis, MO, USA) was added to cells at a concentration of 5 mg/mL and the cells were incubated at 37 °C for 2 h. After dissolution of formazan crystals, optical densities were read at 540 nm (Labsystems Multiskan RC, Vantaa, Finland). […] [42]. Experiments were performed in triplicate and repeated three times.

[3] = system: HSV-1; experiment: Anti-HSV-1 activity, cytopathic effect (CPE) inhibition assay in Vero cells; format: cell-based, HSV-1 strain L2; details: for IC50: read-out: IC50 (CPE assay); for SI = CC50/IC50: Vero cells, HSV-1
Description: as §1, §2
The anti-HSV-1 activity of stilbenes was evaluated using cytopathic effect (CPE) inhibition assay in Vero cells. We infected the monolayer of cells grown in 96-well plates (1 × 10^4 cells/well) with 100 µL/well of virus suspension (100 TCD50/mL) and we simultaneously treated it with stilbenes 1–6 (100 µL/well) at various concentrations (from 1 to 400 μg/mL) for one hour at 37 ◦C. After virus absorption, we removed the mixture of virus and stilbenes, washed the cells, and added the maintenance medium with 1% FBS. […] We used MTT assay to evaluate the antiviral activity of stilbenes. The viral inhibition rate (IR, %) was calculated according to Equation (3):(3) IR, %=Atv−Acv/Acd−Acv×100, where: • Atv is the absorbance of cells infected with virus and treated with a polyphenolic compound; • Acv is the absorbance of the untreated virus-infected cells; • Acd is the absorbance of control (untreated and non-infected) cells.
The selectivity index (SI) was calculated as the ratio of CC50 to IC50. Experiments were repeated three times.

[4] = system: HSV-1; experiment: Anti-HSV-1 activity, HSV-1 DNA level by real-time PCR (RT-PCR); format: cell-based, HSV-1 strain L2; details: 5 µg/mL, simultaneous treatment, 48 h; for 1, 4 and Maxar given on average
Description: The anti-HSV-1 activity of the polyphenolic compounds from M. amurensis was also studied using the real-time PCR (RT-PCR) technique (Figure 5 and Table S69, Supplementary Data). Vero cells were simultaneously infected with 100 TCD50/mL HSV-1 and treated with polyphenolic compounds 1–6 at concentrations of 50 and 5 μg/mL. After 48 h of cell incubation, viral DNA was extracted from the supernatants, and the relative level of HSV-1 DNA was determined using RT-PCR. The effect of stilbenes on the relative level of viral DNA was assessed by 2^−ΔCt method and reported as fold reduction relative to virus control, to which the value of 1.0 was assigned.
For the viral DNA extraction assay, Vero cells grown in 96-well plates were infected with HSV-1 and simultaneously treated with polyphenolic compounds and incubated at 37 °C in a CO2-incubator for 48 h. After incubation, the culture media and the cells scraped from the plate were transferred to centrifuge tubes. The cell debris was removed by centrifugation at 300× g for 10 min. Then, supernatant was collected and kept at −20 °C. The HSV-1 DNA was extracted from supernatant by using the AmpliSens® DNA-sorb-AM (K1-12-100-CE) nucleic acid extraction kit (Moscow, Russia) according to the manufacturer′s instructions. […]
The DNA HSV was detected in the obtained DNA samples using the AmpliSens® HSV I, II-FRT-100F PCR kit (Moscow, Russia) on a real-time PCR instrument Rotor-Gene Q (Qiagen, Hilden, Nordrhein-Westfalen, Germany) according to the manufacturer′s instructions. […] In the real-time PCR, the amplified product is detected with the use of fluorescent dyes. […] The threshold cycle number, Ct, was measured as the PCR cycle, where the amount of amplified target reached the threshold value. The reduction in the HSV-1 DNA levels in culture supernatants was assessed by the change in the threshold cycle (ΔCt) (Equation (4)):(4) ΔCt=Cttv−Ctcv where: • Cttv is the average Ct value for the infected samples after treatment with polyphenolic compounds; • Ctcv corresponds to the average Ct value for the virus control. […]

SMILES	Reduction of intracellular ROS level in PQ-treated cells [1] [%]	CC50 at 48 h [2]	IC50 ([3]; Human alphaherpesvirus 1, Vero)	SI = CC50/IC50 [3]	Reduction of relative level of HSV-1 DNA relative to virus control [4] [log10]	IC50 ([3]; Human alphaherpesvirus 1, added to Vero cells simultaneously with the virus, 100 TCD50/mL)
COc1ccc([C@@H]2COc3cc(O)ccc3[C@H]2c2c(O)cc(O)cc2/C=C/c2ccc(O)c(O)c2)c(O)c1 [Compound 1]	17	162 µg/mL and 316 µM	14 µg/mL and 27.2 µM	11.6 ± 1.3	~1.3	
Oc1ccc(/C=C/c2cc(O)cc3c2[C@H](c2cc(O)cc(O)c2)[C@@H](c2ccc(O)c(O)c2)O3)cc1 [Compound 4, scirpusin A]	7	199 µg/mL and 424 µM		14.4 ± 1.7	~1.3	13.8 µg/mL and 29.4 µM
